In patent US8106004B2, “Methods of inhibiting tumor cell aggressiveness using the microenvironment of human embryonic stem cells” (Children's Memorial Hospital, priority 2006, dated 2012):

What was measured:
[1] = tested on: C8161 human cutaneous melanoma cells; assay: In vivo tumor formation, orthotopic mouse model, C8161 melanoma cells; conditions: for tumorigenicity / tumor formation: 250,000 C8161 cells treated with Morpholino before subcutaneous injection, n=5, p<0.05
Procedure: A microenvironment of human embryonic stem cells (H9 CMTX) was prepared as described above. C8161 human cutaneous melanoma cells were exposed to the H9 CMTX or Matrigel for 3 to 4 days prior to transplantation in a mouse model. Nude immunocompromised mice received an injection of the C8161 cells subcutaneously into the midscapular region (to mimic spontaneous metastatic dissemination found in human cancers). The animals were injected using a 25 or 27-gauge needle with 2.5×10^5 tumor cells/mouse in 0.05 ml RPMI media.
As a corollary to these findings, an orthotopic mouse model was used to examine the effect of Nodal inhibition on melanoma tumor formation. For the experimental tumourigenesis model, 5 week old nude mice (Harlan, Madison, Wis.) were injected subcutaneously with 250,000 C8161 cells, treated with control or anti-Nodal Morpholinos, in 50 μL of complete RPMI. Tumor measurements were taken on days 3, 7, 14 and 17 post-injection, and mice were sacrificed on day 17. For the orthotopic mouse tumor formation studies, statistical significance was determined using the Kruskal-Wallis One Way Analysis of Variance on Ranks, followed by Dunn's method.
The derivation and phenotypic characteristics of the human melanoma cell lines have been previously described. Seftor, et. al., 2002, Clin. Experim. Metastas. 19:233-246; Seftor, et. al., 2005 Cancer Res. 65:10164-10169. The melanoma cell lines are maintained in RPMI 1640 medium (Invitrogen) supplemented with 10% fetal bovine serum (FBS, Gemini Bioproducts) and 0.1% gentamycin sulfate with the exception of C81-61 cells which are maintained in Ham's FIO medium supplemented with 15% FBS, 1X Mito+ (BD Bioscience) and gentamycin sulfate. Normal human melanocytes are purchased (Cascade Biologics) or isolated from neonatal foreskins. Seftor, et. al., 2005. A single cell suspension is prepared, added to plastic flasks for the adherence of melanocytes and the cells propagated in Medium 254 with Human Melanocyte Growth Supplement (Cascade Biologics) including, 100 units/ml penicillin, 100 μg/ml streptomycin, and 250 ng/mL amphotericin B. The human embryonic stem cell lines are cultured as previously described. Thomson, et. al., 1998, Science 282:1145-1147. Briefly, cells are grown in 6-well plates precoated with 0.1% porcine gelatin and containing 1.9×10^5 irradiated mouse embryonic fibroblasts (strain CF-1; ATCC) per well. The cells are maintained in medium containing DMEM/F12 (1:1), 20% knock-out serum replacement, non-essential minimal amino acids, L-glutamine (Invitrogen), […], and 4 ng/ml FGF-2 (R&D Systems), and are split with collagenase (1 mg/ml) before the colonies begin to overlap. The cultures are determined to be free of mycoplasma contamination using a PCR-based assay (Roche). […]

[2] = tested on: C8161 melanoma cells; assay: In vivo tumor cell proliferation-to-apoptosis ratio (Ki67/TUNEL), C8161 derived tumors; conditions: C8161 treated before injection into mouse
Text: (§1) (A) In vivo tumor formation in a mouse injected with MDA-MB-231 cells pre-exposed for 3 days to either a control matrix (Matrigel) or a matrix conditioned by hESCs (H9 CMTX) (n=10) (B) C81-61 cells, transfected with either an empty vector or a Nodal expression construct (n=5), and (C) MDA-MB-231 cells treated with either MO^Control or MO^Nodal (n=10). […] (D) The ratio of tumor cell proliferation to apoptosis for C8161 and MDA-MB-231 derived tumors, determined by immunohistochemical staining for Ki67 and terminal deoxynucleotidyl transferase biotin-dUTP nick-end labeling (TUNEL). Prior to injection into a mouse, C8161 and MDA-MB-231 cells were cultured for 3 days on control or hESC conditioned (H9 CMTX) matrices, or treated with MO^Nodal to knock down Nodal expression. […] (E) Immunohistochemical analysis of Ki67 expression (red/brown) and TUNEL staining in orthotopic melanoma (C8161) and breast carcinoma (MDA-MB-231) tumors. […] Proliferation is indicated by Ki67 staining and apoptotic nuclei were detected with confocal microscopy as red staining localized to the nuclei of apoptotic C8161 or MDA-MB-231 cells. […]
(§2) In order to establish a mechanism by which exposure to the hESC microenvironment abrogates tumorigenicity, the effects of this treatment on the in vivo tumor cell proliferation-to-apoptosis ratio were analyzed. […]

[3] = tested on: Nodal; assay: Immunohistochemical analysis of Nodal staining in orthotopic C8161 tumors; assay type: in vivo, mouse; conditions: tumors from C8161 treated with anti-Nodal Morpholino, day 17
[4] = tested on: MDA-MB-231 breast carcinoma cells; assay: In vivo tumor cell proliferation-to-apoptosis ratio (Ki67/TUNEL), MDA-MB-231 derived tumors; conditions: MDA-MB-231 treated before injection into mouse
Text: as §1, §2

[5] = 250,000 C8161 cells treated with anti-Nodal Morpholino before injection

## MO^Nodal: FITC-conjugated anti-sense Morpholino to Nodal, 5′-AAGCAGCACCTCCAGCCCTTATATC-3′ [SEQ ID NO: 20] (all phosphorodiamidate morpholino (PMO); FITC conjugated, position not given here)
[1]; listed as MO Nodal
  tumorigenicity / tumor formation: reduction in tumor formation
[1]; listed as MONodal
  tumorigenicity / tumor formation: significant reduction
[1]; [5]
  diminution of tumor incidence: 30%
  tumor growth: decrease
[2]
  ratio of proliferation to apoptosis: decreased
[3]
  Nodal expression in tumors (IHC): started to regain Nodal expression
[4]
  ratio of proliferation to apoptosis: decreased
